Assay results: patent US20070149401A1, “METHODS AND COMPOSITION FOR GROWTH ENGINEERING AND DISEASE CONTROL” (Syngenta Crop Protection, Inc., priority 2005, published 2007)

How the values were obtained:
[1] = system: Barley; experiment: Barley lodging control; assay type: in vivo
Protocol: (§1) Barley seeds were treated with paclobutrazol (alone) and with paclobutrazol in combination with gibberrelic acid at varying rates. The resulting plants were then additionally treated with foliar applications of trinexapac plant growth regulator (applied as Palisade™ 128 and Palisade™ 150) at the Feekes 6 timing. Emergence and percent lodging were measured against the check. The results are found in Tables BB and CC.

[2] = system: Variety Florida 47 tomatoe; experiment: Water use efficiency: cumulative water used by tomato transplants; assay type: in vivo; conditions: for Cumulative Water Used (ml/6 plants), projected through 6th week: Table H
Protocol: Variety Florida 47 tomatoe seeds were treated and the plants tested with respect to the cumulative amount of water used to sustain the plants from seeding through growth.
Using the data obtained from these trials, and empirical calculations, a tomato transplant business could save approximately 700 gallons of water while producing 27,000 transplants.
20 tables/greenhouse×28 flats/table×48 plants/flat×0.6 liters/6 plants×gal/3.75 1=710 gallons of water.

[3] = system: Barley; experiment: Barley emergence after PGR seed treatments; assay type: in vivo
Protocol: as §1

[4] = system: Colorado Potato Beetle; experiment: Insect control: Colorado Potato Beetle count on plants from treated seed; assay type: in vivo
Text: Presence of Colorado Potato Beetle was studied in plants resulting from the seed treatments with paclobutrazol.

[5] = system: Xanthamonas spp.; experiment: Xanthamonas infection of tomato transplants; assay type: in vivo; conditions: versus fungicidal mixture alone
Text: Disease resistance in the post-emergent plant has also been shown through use of plant growth regulators as a seed treatment. A set of tomato transplants from seed treated with paclobutrazol and a fungicidal mixture of fludioxonil and mefenoxam was inoculated with Xanthamonas spp. 18 days after transplanting. […] The antibacterial activity of the PGR-treated plants is significant at several rates of application.

[6] = system: vine ripe tomatoes; experiment: Yields of vine ripe tomatoes; assay type: in vivo, tomato
Text: Table O also illustrates the safening effect of the PGR on the seed to later foliar application of the plant activator. Without the PBZ on the seed, the yield decreases from 119 to 96.

Q: How did the “% Lodging” value ([1]; 7 Jun, listed as PBZ rate (1)) turn out when CC(C)(C)[C@@H](O)[C@@H](Cc1ccc(Cl)cc1)n1cncn1 (racemic) [PBZ, paclobutrazol] was run?
A: The value was 85.8%.

Q: And the “% Lodging” value ([1]; 7 Jun, listed as PBZ rate (3))?
A: Its value is 72.5%.

Q: And the “% Lodging” value ([1]; 7 Jun, listed as PBZ ratge (2))?
A: The value was 68.3%.

Q: And the “% Lodging” value ([1]; 11 Jun, listed as PBZ rate (1))?
A: Its value is 29.2%.

Q: What about the “% Lodging” value ([1]; 11 Jun, listed as PBZ rate (3)) of the same compound?
A: Its value is 9.2%.

Q: What about the “% Lodging” value ([1]; 11 Jun, listed as PBZ ratge (2)) of the same compound?
A: The value was 16.8%.

Q: And the “% Lodging” value ([1]; 18 Jun, listed as PBZ rate (1))?
A: The value was 31.7%.

Q: What about the “% Lodging” value ([1]; 18 Jun, listed as PBZ rate (3)) of the same compound?
A: Its value is 20%.

Q: And the “% Lodging” value ([1]; 18 Jun, listed as PBZ ratge (2))?
A: Its value is 23.3%.

Q: What about the “% Lodging” value ([1]; 19 May) of the same compound?
A: The value was 0%.

Q: And the “Cumulative Water Used (ml/6 plants), projected through 6th week” value (from here on “Cumulative Water Used (ml/6 plants)”) ([2]; 1-Aug)?
A: Its value is 883 ml/6 plants.

Q: And the “Cumulative Water Used (ml/6 plants)” value ([2]; 21-Jul)?
A: Its value is 113 ml/6 plants.

Q: What about the “Cumulative Water Used (ml/6 plants)” value ([2]; 22-Jul) of the same compound?
A: The value was 172 ml/6 plants.

Q: What about the “Cumulative Water Used (ml/6 plants)” value ([2]; 23-Jul) of the same compound?
A: The value was 259 ml/6 plants.

Q: And the “Cumulative Water Used (ml/6 plants)” value ([2]; 25-Jul)?
A: Its value is 339 ml/6 plants.

Q: What about the “Cumulative Water Used (ml/6 plants)” value ([2]; 26-Jul) of the same compound?
A: Its value is 423.17 ml/6 plants.

Q: And the “Cumulative Water Used (ml/6 plants)” value ([2]; 27-Jul)?
A: The value was 506 ml/6 plants.

Q: What about the “Cumulative Water Used (ml/6 plants)” value ([2]; 28-Jul) of the same compound?
A: The value was 575 ml/6 plants.

Q: What about the “Cumulative Water Used (ml/6 plants)” value ([2]; 29-Jul) of the same compound?
A: The value was 649 ml/6 plants.

Q: And the “Cumulative Water Used (ml/6 plants)” value ([2]; 31-Jul)?
A: Its value is 790 ml/6 plants.

Q: And the “water use (in words)” value ([2]; during transplant production)?
A: Its value is “decreased water use”.

Q: And the “Emergence, 8 Days after planting (no. emerged-6 ft row)” value ([3]; listed as PBZ rate (1))?
A: Its value is 68.2.

Q: What about the “Emergence, 8 Days after planting (no. emerged-6 ft row)” value ([3]; listed as PBZ rate (3)) of the same compound?
A: The value was 38.7.

Q: And the “Emergence, 8 Days after planting (no. emerged-6 ft row)” value ([3]; listed as PBZ ratge (2))?
A: The value was 36.3.

Q: And the “Emergence, 14 Days after planting (no. emerged-6 ft row)” value ([3]; listed as PBZ rate (1))?
A: The value was 113.2.

Q: And the “Emergence, 14 Days after planting (no. emerged-6 ft row)” value ([3]; listed as PBZ rate (3))?
A: The value was 114.5.

Q: And the “Emergence, 14 Days after planting (no. emerged-6 ft row)” value ([3]; listed as PBZ ratge (2))?
A: Its value is 106.3.

Q: What about the “No. Potato Beetle Adults/plant” value [4] of the same compound?
A: Its value is 0.8.

Q: What about the “resistance against xanthamonas infection (in words)” value [5] of the same compound?
A: Its value is “greater resistance”.

Q: What about the “yield (in words)” value ([6]; PBZ on the seed, later foliar plant activator) of the same compound?
A: The value was “substantially higher”.

Q: Which “Cumulative Tomato Yields No. Fruit/Plot (12 plants)” value ([6]; 29-Aug, averages of 5 programs (ASM) and 3 programs (ASM + PBZ), PBZ on seed, ASM foliar) does the source give for CSC(=O)c1cccc2nnsc12 [ASM, acibenzolar-S-methyl] here?
A: The value was 96.

Q: For O=C1CC(C(=O)O)CC(=O)C1=C(O)C1CC1 (stereo not shown) [Trinexapac [128] Feekes 6], which “% Lodging” value ([1]; 7 Jun) is on record?
A: Its value is 7.5%.

Q: And the “% Lodging” value ([1]; 7 Jun, listed as Trinexapac [128] Feekes 6 + 7 days)?
A: The value was 79.2%.

Q: And the “% Lodging” value ([1]; 11 Jun)?
A: The value was 0.5%.

Q: What about the “% Lodging” value ([1]; 11 Jun, listed as Trinexapac [128] Feekes 6 + 7 days) of the same compound?
A: Its value is 17.2%.

Q: And the “% Lodging” value ([1]; 18 Jun)?
A: The value was 0%.

Q: And the “% Lodging” value ([1]; 18 Jun, listed as Trinexapac [128] Feekes 6 + 7 days)?
A: The value was 1.7%.

Q: And the “% Lodging” value ([1]; 19 May)?
A: Its value is 8.3%.

Q: What about the “% Lodging” value ([1]; 19 May, listed as Trinexapac [128] Feekes 6 + 7 days) of the same compound?
A: Its value is 7.5%.

Q: For O=C1CC(C(=O)O)CC(=O)C1=C(O)C1CC1 (stereo not shown) [Trinexapac [150] Feekes 6], which “% Lodging” value ([1]; 7 Jun) is on record?
A: Its value is 0.2%.

Q: And the “% Lodging” value ([1]; 11 Jun)?
A: Its value is 0%.

Q: And the “% Lodging” value ([1]; 18 Jun)?
A: Its value is 0%.

Q: What about the “% Lodging” value ([1]; 19 May) of the same compound?
A: Its value is 11.7%.
